Measurements taken from patent US20120141589A1, “PARTICLES FOR DRUG DELIVERY AND OTHER APPLICATIONS” (BASF SE, priority 2010, published 2012).

Key:
[1] = Dissolution test of drug/CaCO3 hybrid particles against raw drug crystals, flow-through UV-Vis; assay type: physicochemical; conditions: drug in CaCO3 hybrid particles; 10 mM SDS, pH 1.5 (HCl), 37° C., sink conditions, monitored at 290 nm
Protocol: In this example, the dissolution rates of the particles were determined, and compared to compared with raw, micron-sized drug crystals.
During the dissolution experiments, for convenience, dissolution media was placed in a dissolution chamber which is typically used for pressure dialysis; no pressure was applied for the measurements described here. The vessel used in these experiments contained a built-in stir bar and the dissolution media was stirred at a rate of approximately one revolution per second. Dissolution media was drawn from the bottom of the vessel, through a 0.1 micron PTFE filter. The media vessel was connected to a flow-through UV-Vis spectrophotometer cell via tubing and the liquid was driven using a peristaltic pump. A flow rate of 8 mL per second was used. The output of the flow-through cell was connected back to the dissolution chamber, so that the flow formed a closed loop; in this manner the volume of the dissolution media was conserved.
All water used was distilled and de-ionized. […] The raw drug powder was not ground. […] All dissolution media was kept at 37° C.

[2] = no UV-vis signal detectable in pure water or acidic water with added HCl
Protocol: All water used was distilled and de-ionized. These drugs were monitored at a wavelength of 290 nm. Templates were prepared for dissolution testing by grinding pellets in a mortar and pestle into a fine powder. The raw drug powder was not ground. All tests were performed under sink conditions, where the total amount of drug added is less than one third of the saturation concentration. All dissolution media was kept at 37° C.

Structure (SMILES) | dissolution rate when incorporated into a hybrid structure, compared with raw, micron-sized drug crystals [1] | solubility in water [2]
Clc1ccccc1C(c1ccccc1)(c1ccccc1)n1ccnc1 [chlotrimazole] | enhanced dissolution rates | poorly soluble in water
C[C@]12CC[C@@H]3c4ccc(O)cc4CC[C@H]3[C@@H]1CC[C@@H]2O [estradiol, 17-beta estradiol] | enhanced dissolution rates | –
